Source: patent US20110200556A1, “CHEMOPREVENTION OF HEAD AND NECK SQUAMOUS CELL CARCINOMAS” (THE UNITED STATES OF AMERICA, AS REPRESENTED BY TH E …, priority 2008, published 2011)

Test system: tongue and oral mucosa
Test: Oral chemical carcinogenesis by 4NQO in the drinking water
Assay type: in vivo, C57B1/6 mice
Settings: 4NQO 50 μg/ml in drinking water, week 12
Protocol: Water was changed weekly.
Methods: Animal studies were carried out according to NIH-approved protocols, in compliance with the Guide for the Care and Use of Laboratory Animals. Female C57B1/6 mice (Harlan Sprague-Dawley, National Cancer Institute at Frederick, Md., USA) 4-6 weeks old and weighing 18 to 20 g, were housed in appropriate sterile filter-capped cages, and fed and given water ad libitum. […] All animals underwent a bi-weekly full oral cavity examination under anesthesia (2-5% Isoflurane, Baxter, Deerfield, Ill., mixed with oxygen), and any observed pathological changes were documented. Animals were euthanized either on week 16 or week 22 for tissue retrieval. Complete autopsies were performed, and tissues were immediately collected and fixed in buffered zinc-formalin (Z-fix, Anatech, Mich.) at room temperature for 12 h. The tissues were then transferred to alcohol 70%, processed for paraffin embedding for histopathological diagnosis and further studies. […] Animals were monitored daily for general behavioral abnormalities, signs of toxicity, illness or discomfort. Animals were euthanized on week 22, and tissue retrieval was performed as described above.
Water was replaced weekly, and mice were monitored prior to each water change. […] All animals underwent a bi-weekly full oral cavity examination, and any pathological changes were documented. […]

## O=[N+]([O-])c1cc[n+]([O-])c2ccccc12 [4NQO, 4-nitroquinoline-1 oxide]
  mice that developed tumors in the tongue and other areas of the oral mucosa: around 50%
